This is an account of results in patent US20250270209A1 (INTERLINE THERAPEUTICS, INC., priority 2022, published 2025).

Assay [1] deals with LRRK2 wild type enzyme (Homo sapiens, UniProt Q5S007). Nature of the assay: Biochemical Assay: LRRK2 TR-FRET (LanthaScreen) kinase assay with LRRKtide substrate. The note with it: LRRK2 Inhibition, Table 8. The essentials:
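TR-FRET detection (Tb-labelled phospho-LRRKtide antibody, EDTA stop, 30 min) followed a 120 min, 23 °C reaction of 3 nM wild-type human LRRK2 with LRRKtide (400 nM) and ATP (25 μM) in Tris pH 8.0. Compounds: 11-point 3-fold series from 10 μM, 15 min enzyme preincubation.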
Background: Time-resolved FRET reads energy transfer from a long-lived donor to a nearby acceptor.

Assay [2] concerns the target T1, wild type LRRK2 overexpressed in recombinant HEK-293T cells (Homo sapiens, UniProt Q5S007).
T1 construct: host or cells: HEK293T (transient transfection with pCMV-LRRK2 WT plasmid)
Put plainly: pS935 LRRK2 Cell Assay (HTRF, phospho-LRRK2 Ser935). In kind it is cell-based. Particulars: LRRK2 Inhibition, Table 8, 2 hours compound incubation. In short, it runs like this:
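Phospho-Ser935 LRRK2 measured by two-antibody HTRF (Eu-cryptate donor, d2 acceptor; 665/615 nm ratio) after overnight detection at 23° C. Before lysis, transiently LRRK2-transfected HEK-293T cells were exposed 2 h at 37° C to a 9-point, 3-fold series from 10 μM, with DMSO at 0.2%.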

LRRK2 wild type enzyme, sequence (Q5S007 whole entry): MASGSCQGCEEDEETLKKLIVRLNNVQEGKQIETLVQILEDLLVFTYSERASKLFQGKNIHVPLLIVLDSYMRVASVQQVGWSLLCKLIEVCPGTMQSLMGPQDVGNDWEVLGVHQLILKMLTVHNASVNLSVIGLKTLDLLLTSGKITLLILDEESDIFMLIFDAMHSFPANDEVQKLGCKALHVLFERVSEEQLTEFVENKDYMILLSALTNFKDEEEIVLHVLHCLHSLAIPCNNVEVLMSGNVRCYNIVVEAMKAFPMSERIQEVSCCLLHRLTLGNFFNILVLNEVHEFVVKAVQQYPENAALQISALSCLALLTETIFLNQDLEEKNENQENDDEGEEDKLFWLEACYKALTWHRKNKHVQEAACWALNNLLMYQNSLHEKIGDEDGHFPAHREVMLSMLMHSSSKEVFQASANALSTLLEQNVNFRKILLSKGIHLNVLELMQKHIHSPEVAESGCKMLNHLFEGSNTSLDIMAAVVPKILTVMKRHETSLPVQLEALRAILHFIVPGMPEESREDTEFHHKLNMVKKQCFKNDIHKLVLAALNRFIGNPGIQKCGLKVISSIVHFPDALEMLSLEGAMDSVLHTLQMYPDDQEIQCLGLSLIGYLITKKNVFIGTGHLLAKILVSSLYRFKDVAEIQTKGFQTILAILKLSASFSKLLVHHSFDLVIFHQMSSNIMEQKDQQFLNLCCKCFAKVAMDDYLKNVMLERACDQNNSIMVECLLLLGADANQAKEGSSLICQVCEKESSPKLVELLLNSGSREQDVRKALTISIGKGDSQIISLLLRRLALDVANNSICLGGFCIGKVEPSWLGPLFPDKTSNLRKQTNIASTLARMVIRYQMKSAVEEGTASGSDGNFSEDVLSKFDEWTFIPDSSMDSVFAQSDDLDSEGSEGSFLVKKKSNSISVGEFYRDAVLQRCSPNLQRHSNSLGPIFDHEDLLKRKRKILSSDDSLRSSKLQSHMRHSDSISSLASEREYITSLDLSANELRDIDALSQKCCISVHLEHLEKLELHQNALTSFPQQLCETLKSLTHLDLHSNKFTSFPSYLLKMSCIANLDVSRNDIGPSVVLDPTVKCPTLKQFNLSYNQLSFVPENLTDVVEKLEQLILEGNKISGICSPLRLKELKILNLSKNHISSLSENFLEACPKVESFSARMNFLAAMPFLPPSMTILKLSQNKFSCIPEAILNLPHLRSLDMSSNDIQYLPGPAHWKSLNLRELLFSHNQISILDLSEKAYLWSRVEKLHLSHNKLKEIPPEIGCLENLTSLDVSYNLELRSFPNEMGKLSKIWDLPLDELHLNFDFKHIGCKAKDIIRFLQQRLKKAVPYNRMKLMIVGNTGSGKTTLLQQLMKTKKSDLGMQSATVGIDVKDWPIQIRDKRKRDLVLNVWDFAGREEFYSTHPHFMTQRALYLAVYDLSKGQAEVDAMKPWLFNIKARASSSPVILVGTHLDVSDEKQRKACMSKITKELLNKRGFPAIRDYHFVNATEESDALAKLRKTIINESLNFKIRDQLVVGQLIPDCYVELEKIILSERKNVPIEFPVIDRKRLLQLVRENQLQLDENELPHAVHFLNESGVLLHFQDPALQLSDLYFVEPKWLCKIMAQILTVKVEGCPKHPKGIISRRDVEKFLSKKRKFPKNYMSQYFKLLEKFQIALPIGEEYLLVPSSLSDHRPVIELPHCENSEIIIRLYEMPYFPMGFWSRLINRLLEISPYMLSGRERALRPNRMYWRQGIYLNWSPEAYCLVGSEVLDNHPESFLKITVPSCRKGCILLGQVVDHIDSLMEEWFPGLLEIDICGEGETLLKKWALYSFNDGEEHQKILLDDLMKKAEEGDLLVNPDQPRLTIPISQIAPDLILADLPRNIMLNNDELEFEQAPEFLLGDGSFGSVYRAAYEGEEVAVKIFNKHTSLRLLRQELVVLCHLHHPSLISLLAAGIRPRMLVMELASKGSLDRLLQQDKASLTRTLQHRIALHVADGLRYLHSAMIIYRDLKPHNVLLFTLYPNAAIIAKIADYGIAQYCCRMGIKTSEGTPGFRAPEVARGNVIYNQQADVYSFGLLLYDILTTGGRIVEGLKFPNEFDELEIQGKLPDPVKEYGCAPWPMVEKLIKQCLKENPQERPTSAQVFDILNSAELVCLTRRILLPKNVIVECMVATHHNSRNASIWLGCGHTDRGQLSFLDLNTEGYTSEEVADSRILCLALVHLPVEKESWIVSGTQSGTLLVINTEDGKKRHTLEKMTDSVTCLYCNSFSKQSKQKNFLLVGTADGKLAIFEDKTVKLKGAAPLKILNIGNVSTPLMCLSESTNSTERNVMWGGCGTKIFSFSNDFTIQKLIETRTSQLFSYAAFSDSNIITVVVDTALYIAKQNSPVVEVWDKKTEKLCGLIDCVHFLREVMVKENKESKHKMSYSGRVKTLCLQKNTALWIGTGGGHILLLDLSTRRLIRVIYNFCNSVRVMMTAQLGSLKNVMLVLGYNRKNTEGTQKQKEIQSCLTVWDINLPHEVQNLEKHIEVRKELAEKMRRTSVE
T1 sequence (Q5S007 whole entry): as above

Broadly, the IC50 is the concentration needed to halve the response being measured. As for `C[C@@H]1C[C@H](n2c([C@H]3CN(CC4CC4)C(=O)O3)nc3cnc4ccc(C#N)cc4c32)CCO1` [Compound 36, 2-[(5R)-3-(cyclopropylmethyl)-2-oxo-1,3-oxazolidin-5-yl]-1-[(2R,4R)-2-methyloxan-4-yl]-1H-imidazo[4,5-c]quinoline-8-carbonitrile], the IC50 in assay [1] amounted to 1.16 nM; in assay [2] it was 63.8 nM.
The corresponding values for `C[C@@H]1C[C@H](n2c([C@H]3CC(=O)N(c4cnn(C)c4)C3)nc3cnc4ccc(C#N)cc4c32)CCO1` [Compound 47, 2-[(3S)-1-(1-methyl-1H-pyrazol-4-yl)-5-oxopyrrolidin-3-yl]-1-[(2R,4R)-2-methyloxan-4-yl]-1H-imidazo[4,5-c]quinoline-8-carbonitrile] are 141 nM and 9880 nM.
On to `Cc1nc(NC(=O)Cc2nc3cnc4ccc(C#N)cc4c3n2[C@@H]2CCO[C@H](C)C2)no1` [Compound 368, N-(5-methyl-1,2,4-oxadiazol-3-yl){3-[(2R,4R)-2-methyltetrahydro-2H-pyran-4-yl]-12-cyano-3,5,8-triazatricyclo[7.4.0.0^2,6]trideca-1(9),2(6),4,7,10,12-hexaen-4-yl}acetamide], for which the IC50 in assay [1] was 0.509 nM; in assay [2], 16.5 nM.
Turning to `C[C@@H]1C[C@H](n2c(CC(=O)N[C@@H]3CCOC3)nc3cnc4ccc(Cl)cc4c32)CCO1` [Compound 145, 2-{8-chloro-1-[(2R,4R)-2-methyloxan-4-yl]-1H-imidazo[4,5-c]quinolin-2-yl}-N-[(3R)-oxolan-3-yl]acetamide], the IC50 in assay [1] was 0.616 nM; in assay [2] it was 13.5 nM.
As for `C[C@@H]1C[C@H](n2c(CC(=O)Nc3cnn(C4CCC4)c3)nc3cnc4ccc(C#N)cc4c32)CCO1` [Compound 305, N-(1-cyclobutyl-4-pyrazolyl){3-[(2R,4R)-2-methyltetrahydro-2H-pyran-4-yl]-12-cyano-3,5,8-triazatricyclo[7.4.0.0^2,6]trideca-1,4,6,8,10,12-hexaen-4-yl}acetamide], the figures for the IC50 in assay [1] and in assay [2] were 0.633 nM and 12.3 nM, respectively.
In the case of `C[C@@H]1C[C@H](n2c(C3CC(=O)N(c4cnn(C)c4)C3)nc3cnc4ccc(C#N)cc4c32)CCO1` (mixture of isomers) [Compound 59, 2-[(3RS)-1-(1-methyl-1H-pyrazol-4-yl)-5-oxopyrrolidin-3-yl]-1-[(2R,4R)-2-methyloxan-4-yl]-1H-imidazo[4,5-c]quinoline-8-carbonitrile], the IC50 in assay [1] is 1.06 nM; in assay [2] it was 118 nM.
On to `C[C@@H]1C[C@H](n2c(CN3CCOCC3=O)nc3cnc4ccc(C#N)cc4c32)CCO1` [Compound 78, 1-[(2R,4R)-2-methyloxan-4-yl]-2-[(3-oxomorpholin-4-yl)methyl]-1H-imidazo[4,5-c]quinoline-8-carbonitrile], for which the IC50 in assay [1] was determined as 12.2 nM; in assay [2], 1010 nM.
Consider `C[C@@H]1C[C@H](n2c(CC(=O)NC[C@H]3CCOC3)nc3cnc4ccc(C#N)cc4c32)CCO1` [Compound 172, 2-{8-cyano-1-[(2R,4R)-2-methyloxan-4-yl]-1H-imidazo[4,5-c]quinolin-2-yl}-N-{[(3R)-oxolan-3-yl]methyl}acetamide], for which the figures for the IC50 in assay [1] and in assay [2] were 0.567 nM and 37.6 nM, respectively.
On to `C[C@@H]1C[C@H](n2c(CC(=O)Nc3ccn(C4COC4)n3)nc3cnc4ccc(C#N)cc4c32)CCO1` [Compound 346, N-[1-(3-oxetanyl)-3-pyrazolyl]{2-[(2R,4R)-2-methyltetrahydro-2H-pyran-4-yl]-12-cyano-3,5,8-triazatricyclo[7.4.0.0^2,6]trideca-1(9),2(6),4,7,10,12-hexaen-4-yl}acetamide], for which the IC50 in assay [1] was 0.555 nM; in assay [2] it was 28.5 nM.
Turning to `COCCNC(=O)Cc1nc2cnc3ccc(Cl)cc3c2n1[C@@H]1CCO[C@H](C)C1` [Compound 164, 2-{8-chloro-1-[(2R,4R)-2-methyloxan-4-yl]-1H-imidazo[4,5-c]quinolin-2-yl}-N-(2-methoxyethyl)acetamide], the IC50 was 0.369 nM in assay [1] and 15.2 nM in assay [2].
`C[C@@H]1C[C@H](n2c(CNC(=O)OC(C)(C)C)nc3cnc4ccc(C#N)cc4c32)CCO1` [Compound 33, tert-butyl N-({8-cyano-1-[(2R,4R)-2-methyloxan-4-yl]-1H-imidazo[4,5-c]quinolin-2-yl}methyl)carbamate]: the results for the IC50 in assay [1] and in assay [2] were 5.24 nM and 396 nM, respectively.
For the compound `C[C@@H]1C[C@H](n2c([C@H]3CNC(=O)C3)nc3cnc4ccc(C#N)cc4c32)CCO1` [Compound 72, 1-[(2R,4R)-2-methyloxan-4-yl]-2-[(3R)-5-oxopyrrolidin-3-yl]-1H-imidazo[4,5-c]quinoline-8-carbonitrile], the IC50 in assay [1] was 1.86 nM; in assay [2] it was 3600 nM.
In the same order, the values of `C[C@@H]1C[C@H](n2c(CC(=O)Nc3cccnc3F)nc3cnc4ccc(C#N)cc4c32)CCO1` [Compound 317, N-(2-fluoro-3-pyridyl){3-[(2R,4R)-2-methyltetrahydro-2H-pyran-4-yl]-12-cyano-3,5,8-triazatricyclo[7.4.0.0^2,6]trideca-1(9),2(6),4,7,10,12-hexaen-4-yl}acetamide] are 0.496 nM and 4.03 nM.
The corresponding values for `C[C@@H]1C[C@H](n2c(CC(=O)NC3CC3)nc3cnc4ccc(C#N)cc4c32)CCO1` [Compound 5, 2-{8-cyano-1-[(2R,4R)-2-methyloxan-4-yl]-1H-imidazo[4,5-c]quinolin-2-yl}-N-cyclopropylacetamide] are 0.586 nM and 35.6 nM.
The corresponding values for `C[C@@H]1C[C@H](n2c(CC(=O)Nc3cnc(C(F)(F)F)n(C)c3=O)nc3cnc4ccc(C#N)cc4c32)CCO1` [Compound 220, N-[1-methyl-6-oxo-2-(trifluoromethyl)-1,6-dihydro-5-pyrimidinyl]{3-[(2R,4R)-2-methyltetrahydro-2H-pyran-4-yl]-12-cyano-3,5,8-triazatricyclo[7.4.0.0^2,6]trideca-1,4,6,8,10,12-hexaen-4-yl}acetamide] are 0.447 nM and 4.25 nM.
Turning to `C[C@@H]1C[C@H](n2c(CC(=O)Nc3cnoc3)nc3cnc4ccc(Cl)cc4c32)CCO1` [Compound 313], the IC50 turned out to be 0.722 nM in assay [1] and 7.09 nM in assay [2].
As for `C[C@@H]1C[C@H](n2c(C3CCN(C(=O)c4cccnn4)CC3)nc3cnc4ccc(C#N)cc4c32)CCO1` [Compound 117, 1-[(2R,4R)-2-methyloxan-4-yl]-2-[1-(pyridazine-3-carbonyl)piperidin-4-yl]-1H-imidazo[4,5-c]quinoline-8-carbonitrile], the IC50 in assay [1] came out at 1.24 nM; in assay [2], 503 nM.
Consider `Cc1cc(C)c(NC(=O)Cc2nc3cnc4ccc(C#N)cc4c3n2[C@@H]2CCO[C@H](C)C2)cn1` [Compound 236, N-(4,6-dimethyl-3-pyridyl){3-[(2R,4R)-2-methyltetrahydro-2H-pyran-4-yl]-12-cyano-3,5,8-triazatricyclo[7.4.0.0^2,6]trideca-1,4,6,8,10,12-hexaen-4-yl}acetamide], for which the results for the half-inhibitory concentration (IC50) in assay [1] and in assay [2] were 0.356 nM and 7.37 nM, respectively.
Regarding `Cc1cc(CNC(=O)Cc2nc3cnc4ccc(C#N)cc4c3n2[C@@H]2CCO[C@H](C)C2)no1` [Compound 176, 2-{8-cyano-1-[(2R,4R)-2-methyloxan-4-yl]-1H-imidazo[4,5-c]quinolin-2-yl}-N-[(5-methyl-1,2-oxazol-3-yl)methyl]acetamide], the results for the IC50 in assay [1] and in assay [2] were 0.323 nM and 5.56 nM, respectively.
As for `C[C@@H]1C[C@H](n2c(CC(=O)NCC(C)(C)C#N)nc3cnc4ccc(C#N)cc4c32)CCO1` [Compound 239, N-(2-cyano-2-methylpropyl){3-[(2R,4R)-2-methyltetrahydro-2H-pyran-4-yl]-12-cyano-3,5,8-triazatricyclo[7.4.0.0^2,6]trideca-1(9),2(6),4,7,10,12-hexaen-4-yl}acetamide], the IC50 was 1.32 nM in assay [1] and 169 nM in assay [2].
`C[C@@H]1C[C@H](n2c(C3CCN(C(=O)C4CC4)CC3)nc3cnc4ccc(C#N)cc4c32)CCO1` [Compound 27, 2-(1-cyclopropanecarbonylpiperidin-4-yl)-1-[(2R,4R)-2-methyloxan-4-yl]-1H-imidazo[4,5-c]quinoline-8-carbonitrile]: the values for the IC50 in assay [1] and in assay [2] were 1.49 nM and 115 nM, respectively.
Turning to `C[C@@H]1C[C@H](n2c(CC(=O)NC3(C#N)CC3)nc3cnc4ccc(C#N)cc4c32)CCO1` [Compound 282, N-1-cyanocyclopropyl{3-[(2R,4R)-2-methyltetrahydro-2H-pyran-4-yl]-12-cyano-3,5,8-triazatricyclo[7.4.0.0^2,6]trideca-1,4,6,8,10,12-hexaen-4-yl}acetamide], the IC50 in assay [1] was determined as 0.619 nM; in assay [2], 188 nM.
As for `COc1ncc(NC(=O)Cc2nc3cnc4ccc(C#N)cc4c3n2[C@@H]2CCO[C@H](C)C2)c(C)n1` [Compound 243, N-(2-methoxy-4-methyl-5-pyrimidinyl){3-[(2R,4R)-2-methyltetrahydro-2H-pyran-4-yl]-12-cyano-3,5,8-triazatricyclo[7.4.0.0^2,6]trideca-1(9),2(6),4,7,10,12-hexaen-4-yl}acetamide], the IC50 in assay [1] was 0.565 nM; in assay [2], 11.5 nM.
In the same order, the values of `C[C@@H]1C[C@H](n2c(CC(=O)NC3(C)COC3)nc3cnc4ccc(Cl)cc4c32)CCO1` [Compound 323, N-(3-methyl-3-oxetanyl){3-[(2R,4R)-2-methyltetrahydro-2H-pyran-4-yl]-12-chloro-3,5,8-triazatricyclo[7.4.0.0^2,6]trideca-1(9),2(6),4,7,10,12-hexaen-4-yl}acetamide] are 2.72 nM and 76.9 nM.
